Laboratory results published in patent US20090131354A1, “miR-126 REGULATED GENES AND PATHWAYS AS TARGETS FOR THERAPEUTIC INTERVENTION” (priority 2007, published 2009).

What was measured:
[1] = tested on: H226 lung cancer cells; test: Alamar Blue proliferation assay, H226; assay type: cell-based, human
Source text: The inventors assessed the therapeutic effect of hsa-miR-126 for lung cancer by using 11 individual lung cancer cell lines. To measure cellular proliferation of lung cancer cells, the following non-small cell lung cancer (NSCLC) cells were used: cells derived from lung adenocarcinoma (A549, H1299, H522, H838, Calu-3, HCC827, HCC2935), cells derived from lung squamous cell carcinoma (H520, H226), cells derived from lung bronchioalveolar carcinoma (H1650), and cells derived from lung large cell carcinoma (H460). Synthetic hsa-miR-126 (Pre-miR™-hsa-miR-126, Ambion cat. no. AM17100) or negative control (NC) miRNA (Pre-miR™ microRNA Precursor Molecule-Negative Control #2; Ambion cat. no. AM17111) was delivered via lipid-based transfection into A549, H1299, H522, H838, Calu-3, HCC827, HCC2935, H520, H1650, and H460 cells, and via electroporation into H226 cells.
Lipid-based reverse transfections were carried out in triplicate according to a published protocol (Ovcharenko et al., 2005) and the following parameters: Cells (5,000-12,000 per 96 well), 0.1-0.2 μl Lipofectamine™ 2000 (cat. no. 11668-019, Invitrogen Corp., Carlsbad, Calif., USA) in 20 μl OptiMEM (Invitrogen), 30 nM final concentration of miRNA in 100 μl. […] Electroporated H226 cells were seeded at 7,000 cells per 96-well in a total volume of 100 μl. All cells except for Calu-3 cells were harvested 72 hours post transfection or electroporation for assessment of cellular proliferation. Calu-3 cells were harvested 10 days post transfection. Proliferation assays were performed using Alamar Blue (Invitrogen) following the manufacturer's instructions. As a control for inhibition of cellular proliferation, siRNA against the motor protein kinesin 11, also known as Eg5, was used. Eg5 is essential for cellular survival of most eukaryotic cells and a lack thereof leads to reduced cell proliferation and cell death (Weil et al., 2002). siEg5 was used in lipid-based transfection following the same experimental parameters that apply to miRNA. […]

[2] = tested on: A549 cells; test: Ingenuity Pathways Analysis of affected cellular pathways; set-up: species or system human
Method: The mis-regulation of gene expression by hsa-miR-126 (Table 1) affects many cellular pathways that represent potential therapeutic targets for the control of cancer and other diseases and disorders. The inventors determined the identity and nature of the cellular genetic pathways affected by the regulatory cascade induced by hsa-miR-126 expression. Cellular pathway analyses were performed using Ingenuity Pathways Analysis (Version 4.0, Ingenuity® Systems, Redwood City, Calif.). Alteration of a given pathway was determined by Fisher's Exact test (Fisher, 1922).

[3] = tested on: H460 lung cancer cells; test: Dose-dependent inhibition of proliferation (Alamar Blue), H460; assay type: cell-based, human; details: normalized to mock-transfected cells (0 pM = 100%)
Method: Lipid-based reverse transfections were carried out in triplicate according to a published protocol (Ovcharenko et al., 2005) and the following parameters: Cells (5,000-12,000 per 96 well), 0.1-0.2 μl Lipofectamine™ 2000 (cat. no. 11668-019, Invitrogen Corp., Carlsbad, Calif., USA) in 20 μl OptiMEM (Invitrogen), 30 nM final concentration of miRNA in 100 μl. Electroporation of H226 cells was carried out using the BioRad Gene Pulser Xcell™ instrument (BioRad Laboratories Inc., Hercules, Calif., USA) with the following settings: 5×10^6 cells with 5 μg miRNA in 200 μl OptiMEM (1.6 μM miRNA), square wave pulse at 250 V for 5 ms. Electroporated H226 cells were seeded at 7,000 cells per 96-well in a total volume of 100 μl. All cells except for Calu-3 cells were harvested 72 hours post transfection or electroporation for assessment of cellular proliferation. Calu-3 cells were harvested 10 days post transfection. Proliferation assays were performed using Alamar Blue (Invitrogen) following the manufacturer's instructions. As a control for inhibition of cellular proliferation, siRNA against the motor protein kinesin 11, also known as Eg5, was used. Eg5 is essential for cellular survival of most eukaryotic cells and a lack thereof leads to reduced cell proliferation and cell death (Weil et al., 2002). siEg5 was used in lipid-based transfection following the same experimental parameters that apply to miRNA. The inventors also used a DNA topoisomerase II inhibitor, etoposide, at a final concentration of 10 μM and 50 μM as an internal standard for the potency of miRNAs. Etoposide is an FDA-approved DNA topoisomerase II inhibitor in the treatment of lung cancer. […] Percent (%) proliferation values from the Alamar Blue assay were normalized to values from cells treated with negative control miRNA. Percent proliferation of hsa-miR-126 treated cells relative to cells treated with negative control miRNA (100%) is shown in Table 6 and in FIG. 1.
The inventors determined sensitivity and specificity of hsa-miR-126 by administering hsa-miR-126 or negative control miRNA at increasing concentrations, ranging from 0 pM to 3,000 pM (Table 7, FIG. 2). Delivery of miRNA and assessment of cellular proliferation of A549 and H460 cells were done as described above. Proliferation values from the Alamar Blue assay were normalized to values obtained from mock-transfected cells (0 pM=100% proliferation). Increasing amounts of negative control miRNA (NC) had no effect on cellular proliferation of A549 or H460 cells (Table 7 and FIG. 2). In contrast, the growth-inhibitory phenotype of hsa-miR-126 is dose-dependent and correlates with increasing amounts of hsa-miR-126 (Table 7 and FIG. 2). Hsa-miR-126 induces a specific therapeutic response at concentrations as low as 300 pM.

## COc1cc([C@@H]2c3cc4c(cc3[C@@H](O[C@@H]3O[C@@H]5CO[C@@H](C)O[C@H]5[C@H](O)[C@H]3O)[C@H]3COC(=O)[C@H]23)OCO4)cc(OC)c1O [etoposide]
[1]; H226, 50 μM, relative to NC miRNA (100%)
  % proliferation: 9.33%
[1]; H226, relative to NC miRNA (100%)
  % proliferation: 28.17%

## hsa-miR-126 (UCGUACCGUGAGUAAUAAUGC; synthetic pre-miR form, further chemistry not given here) [Synthetic hsa-miR-126 (Pre-miR™-hsa-miR-126, Ambion cat. no. AM17100)]
[2]; pathway: Cancer, Cellular Movement, Tumor Morphology
  Number of Genes: 23
[2]; pathway: Carbohydrate Metabolism, Connective Tissue Disorders, Inflammatory Disease
  Number of Genes: 15
[2]; pathway: Cell Cycle, Connective Tissue Development and Function, Immune Response
  Number of Genes: 1
[2]; pathway: Cell Cycle, Lipid Metabolism, Molecular Transport
  Number of Genes: 15
[2]; pathway: Cell Death, Cell-To-Cell Signaling and Interaction, Cellular Assembly and Organization
  Number of Genes: 1
[2]; pathway: Cell Morphology, Cellular Assembly and Organization, Cellular Development
  Number of Genes: 15
[2]; pathway: Cell Signaling, Molecular Transport, Neurological Disease
  Number of Genes: 1
[2]; pathway: Cell-To-Cell Signaling and Interaction, Immune Response, Immune and Lymphatic System Development and Function
  Number of Genes: 13
[2]; pathway: Cellular Assembly and Organization, Cancer, Skeletal and Muscular Disorders
  Number of Genes: 16
[2]; pathway: Cellular Function and Maintenance, Cellular Assembly and Organization, Cell Cycle
  Number of Genes: 11
[2]; pathway: Cellular Growth and Proliferation, Skeletal and Muscular System Development and Function, Cancer
  Number of Genes: 16
[2]; pathway: Cellular Movement, Cellular Assembly and Organization, Drug Metabolism
  Number of Genes: 16
[2]; pathway: Developmental Disorder, Endocrine System Disorders, Lipid Metabolism
  Number of Genes: 1
[2]; pathway: Immune Response, Cellular Assembly and Organization, Gene Expression
  Number of Genes: 1
[2]; pathway: Molecular Transport, Protein Trafficking, Cell-To-Cell Signaling and Interaction
  Number of Genes: 1
[1]; H226, 30 nM, electroporation, 72 h, relative to NC miRNA (100%)
  % proliferation: 92.09%
[3]; H460 cells, 3 pM miRNA
  % proliferation: 105.60%
[3]; H460 cells, 30 pM miRNA
  % proliferation: 108.98%
[3]; H460 cells, 300 pM miRNA
  % proliferation: 86.46%
[3]; H460 cells, 3,000 pM miRNA
  % proliferation: 33.91%
